Assay results reported in the Bradley open melting point set (2014).
Where “and” joins values, the source holds several entries; their conditions need not be identical. Equal values may be shown once. Where a name gives a salt, the structure may show the parent alone.

Compound	melting point
O=C(CO)[C@H](O)[C@@H](O)[C@H](O)CO [D-Sorbose]	95 °C
C[C@@H](O)[C@@H](N)C(=O)O [D-allo-threonine]	278 °C
C(O)[C@@H](O)[C@@H](O)[C@H](O)CO [D-arabitol]	102 °C
CC1(C)O[C@@H]2CO[C@]3(COC(C)(C)O3)C(=O)[C@@H]2O1 [D-epoxone]	102 °C
O[C@@H]1[C@H](O)[C@@H](O)OC[C@H]1O [D-lyxose]	112 °C
N[C@@H](CO)Cc1ccccc1 [D-phenylalaninol]	92 °C
O=C(O)[C@@]1(O)CC(O)[C@H](O)[C@H](O)C1 (stereo partly drawn) [D-quinic acid]	165 °C
OCc1ccccc1O[C@@H]1O[C@H](CO)[C@@H](O)[C@H](O)[C@H]1O [D-salicin]	199 °C
O=C(CO)[C@H](O)[C@@H](O)[C@H](O)CO [D-sorbose]	164 °C
Clc1ccc(C(c2ccc(Cl)cc2)C(Cl)(Cl)Cl)cc1 [DDT]	109 °C (4×) and 108 °C (2×)
CCOC(=O)C(C#N)=c1sc(=C(C#N)C(=O)OCC)s1 [DIETHYL 2,2'-(1,3-DITHIETANE-2,4-DIYLIDENE)BIS(CYANOACETATE)]	161 °C
C#CCCCCCCCC [Dec-1-yne]	-44 °C
CCCCCCCCCCc1ccccc1 [Decylbenzene]	-14 °C
C[C@@H]1C[C@H]2[C@@H]3CCC4=CC(=O)C=C[C@]4(C)[C@@]3(F)[C@@H](O)C[C@]2(C)[C@@]1(O)C(=O)CO [Dexamethasone]	262 °C
C[C@@H](CN1CC(=O)NC(=O)C1)N1CC(=O)NC(=O)C1 [Dexrazoxane]	194 °C
CC1=NS(=O)(=O)c2cc(Cl)ccc2N1 [Diazoxide]	330 °C
c1ccc2c(c1)ccc1cc3c(ccc4ccccc43)cc12 [Dibenz[ah]anthracene]	269 °C
BrCBr [Dibromomethane]	-52 °C
FC(F)(Cl)Cl [Dichloro(difluoro)methane]	-158 °C
O=C(O)C(Cl)Cl [Dichloroacetic acid]	9.7 °C
ClC1=C(Cl)C2(Cl)C3C4CC(C5OC45)C3C1(Cl)C2(Cl)Cl (centres undefined) [Dieldrin]	175 °C
CCOC(=O)OCC [Diethyl carbonate]	-43 °C
CCOCC [Diethyl ether]	-116 °C
CCOC(=O)CC(=O)OCC [Diethyl malonate]	-50 °C
CCOS(=O)(=O)OCC [Diethyl sulfate]	-24 °C
Oc1ccc(cc1)C(CC)=C(/CC)c2ccc(O)cc2 [Diethylstilbestrol]	170 °C

Compound	melting point
C[C@H]1O[C@@H](O[C@H]2[C@@H](O)C[C@H](O[C@H]3[C@@H](O)C[C@H](O[C@H]4CC[C@@]5(C)[C@H](CC[C@@H]6[C@@H]5CC[C@]5(C)[C@@H](C7=CC(=O)OC7)CC[C@]65O)C4)O[C@@H]3C)O[C@@H]2C)C[C@H](O)[C@@H]1O [Digitoxin]	256 °C
CC(C)SC(C)C [Diisopropyl sulfide]	-106 °C
COC(=O)CCCCC(=O)OC [Dimethyl adipate]	8 °C
COC(=O)CCC(=O)OC [Dimethyl succinate]	19.5 °C
CSC [Dimethyl sulfide]	-98 °C
COC(=O)c1ccc(C(=O)OC)cc1 [Dimethyl terephthalate]	141 °C
CN(C)C=O [Dimethylformamide]	-60.4 °C
c1ccc(Oc2ccccc2)cc1 [Diphenyl ether]	27 °C
CCCCCCCCCCCC(=O)OOC(=O)CCCCCCCCCCC [Diundecylperoxyanhydride]	56 °C
CCCCCCCCCCCCO [Dodecan-1-ol]	24 °C
CCCCCCCCCCCCO[C@@H]1O[C@H](CO)[C@@H](O[C@H]2O[C@H](CO)[C@@H](O)[C@H](O)[C@H]2O)[C@H](O)[C@H]1O [Dodecyl 4-O-alpha-D-glucopyranosyl-beta-D-glucopyranoside]	150 °C
CN(C)CCC=C1c2ccccc2COc2ccccc21 [Doxepin]	185 °C
Clc1ccc(COC(Cn2ccnc2)c2ccc(Cl)cc2Cl)cc1 (centres undefined) [Ecostatin]	87 °C
ClC1=C(Cl)C2(Cl)C3C4CC(C5OC45)C3C1(Cl)C2(Cl)Cl (centres undefined) [Endrin]	210 °C
CSc1ccc(C(=O)c2[nH]c(=O)[nH]c2C)cc1 [Enoximone]	256 °C
CN[C@@H](C)[C@H](O)c1ccccc1 [Ephedrine]	34 °C
C=CCOc1ccc(CC(=O)O)cc1Cl [Epinal]	92 °C
C=C(CC)C(=O)c1ccc(OCC(=O)O)c(Cl)c1Cl [Ethacrynic acid]	122 °C
SCCS [Ethane-1,2-dithiol]	-41 °C
CC(=O)OO [Ethaneperoxoic acid]	0.1 °C
CCO [Ethanol]	-114 °C
C=C(C#N)C(=O)OCC [Ethyl 2-cyanoacrylate]	-22 °C
CCOC(=O)c1ccc(O)cc1 [Ethyl 4-hydroxybenzoate]	117 °C
CCOC(=O)/C=C/c1ccccc1 [Ethyl (2E)-3-phenylacrylate]	7 °C
CCOC(=O)/C(C#N)=C\c1ccc(-c2ccccc2)o1 [Ethyl (2Z)-2-cyano-3-(5-phenyl-2-furyl)acrylate]	117 °C
CCOC(=O)/C(C#N)=C\c1ccc(-c2ccccc2OC)o1 [Ethyl (2Z)-2-cyano-3-[5-(2-methoxyphenyl)-2-furyl]acrylate]	121 °C

Compound	melting point
CCOC(=O)/C(C#N)=N\Nc1ccccc1[N+](=O)[O-] [Ethyl (2Z)-cyano[(2-nitrophenyl)hydrazono]acetate]	103 °C
C=CC(=O)OCC [Ethyl acrylate]	-71 °C
CCc1ccccc1 [Ethylbenzene]	-94.9 °C
O=C(c1ccccc1)c1ccc(C(F)(F)F)cc1 [FXFFR DVR]	116 °C
O=C(O)CCC(=O)c1ccc(-c2ccccc2)cc1 [Fenbufen]	186 °C
c1ccc2c(c1)Cc1ccccc1-2 [Fluorene]	116 °C
O=[N+]([O-])c1ccc(Oc2ccc(C(F)(F)F)cc2[N+](=O)[O-])cc1 [Fluorodifen]	90 °C
NS(=O)(=O)c1cc(C(=O)O)c(NCc2ccco2)cc1Cl [Furosemide]	206 °C
O=c1c(-c2ccc(O)cc2)coc2cc(O)cc(O)c12 [Genistein]	302 °C
N=C(N)N [Guanidine]	50 °C
O=C(CCCN1CCC(O)(c2ccc(Cl)cc2)CC1)c1ccc(F)cc1 [Haloperidol]	152 °C
CCC1(C2=CCCCCC2)C(=O)NC(=O)NC1=O [Heptabarbital]	174 °C
ClC1=C(Cl)C2(Cl)C3C(Cl)C=CC3C1(Cl)C2(Cl)Cl (centres undefined) [Heptachlor]	95 °C
O=C(O)C(F)(F)C(F)(F)C(F)(F)C(F)(F)C(F)(F)C(F)(F)C(F)(F)C(F)(F)F [Heptadecafluorononanoic acid]	66.5 °C
CCCCCC(C)=O [Heptan-2-one]	-35 °C
CCCCCCC [Heptane]	-91 °C
CCCCCCC(=O)O [Heptanoic acid]	-9 °C
ClC(Cl)(Cl)C(Cl)(Cl)Cl [Hexachloroethane]	192 °C
CCCCCCCCCCCCCCCC [Hexadecane]	18 °C
CCCCCCO [Hexan-1-ol]	-52 °C
CCCCCC(=O)O [Hexanoic acid]	-3 °C
CCCCCCc1ccccc1 [Hexylbenzene]	-61 °C
O=C1Cc2ccccc2C(=O)O1 [Homophthalic acid anhydride]	143 °C
Br [Hydrogen bromide]	-87 °C and -86 °C
NC(=O)NO [Hydroxyurea]	144 °C
CC(C)Cc1ccc(C(C)C(=O)O)cc1 (centres undefined) [Ibumetin]	75 °C

Compound	melting point
CCCCCCCCCCCCCCCCCCCC [Icosane]	36.7 °C
O=P1(NCCCl)OCCCN1CCCl (centres undefined) [Ifosfamide]	40 °C
CC(C)Cn1cnc2c(N)nc3ccccc3c21 [Imiquimod]	293 °C
CCI [Iodoethane]	-108 °C
CI [Iodomethane]	-64 °C
CC(C)c1ncc([N+](=O)[O-])n1C [Ipronidazole]	61 °C
O=C1Nc2ccccc2C1=O [Isatin]	203 °C
NNC(=O)c1ccncc1 [Isoniazid]	171 °C
O=Cc1cccc(C=O)c1 [Isophthalaldehyde]	88.8 °C
CC(C)c1ccccc1 [Isopropylbenzene]	-96 °C
CO[C@@H]1[C@@H](O[C@@H]2O[C@H](C)[C@@H](O[C@H]3C[C@@](C)(O)[C@@H](OC(=O)CC(C)C)[C@H](C)O3)[C@H](N(C)C)[C@H]2O)[C@@H](CC=O)C[C@@H](C)[C@@H](O)C=CC=CC[C@@H](C)OC(=O)C[C@H]1OC(C)=O [Josamycin]	132 °C
CC(C(=O)O)c1cccc(C(=O)c2ccccc2)c1 (centres undefined) [Ketoprofen]	94 °C
C[C@H](N)C(=O)N[C@@H](C)C(=O)O [L-Alanyl-L-alanine]	280 °C
N=C(N)NCCC[C@H](N)C(=O)O [L-Arginine]	221 °C
CC[C@H](C)[C@H](N)C(=O)O [L-Isoleucine]	169 °C
C[C@@H](O)[C@H](N)C(=O)O [L-Threonine]	256 °C
CC(C)[C@H](N)C(=O)O [L-Valine]	308 °C
C[C@@H]1O[C@@H](O)[C@@H](O)[C@H](O)[C@@H]1O [L-fucose]	139 °C
N[C@H](CO)Cc1ccccc1 [L-phenylalaninol]	92 °C
N[C@@H](Cc1ccc(O)c(O)c1)C(=O)O [Levodopa]	277 °C
ClC1C(Cl)C(Cl)C(Cl)C(Cl)C1Cl (centres undefined) [Lindane]	112 °C
CCOC(=O)O[C@]1(C(=O)OCCl)CC[C@H]2[C@@H]3CCC4=CC(=O)C=C[C@]4(C)[C@H]3[C@@H](O)C[C@@]21C [Loteprednol]	222 °C
Cc1cccc(Nc2ccccc2C(=O)O)c1C [Mefenamic acid]	230 °C
CC1(C)OC(=O)CC(=O)O1 [Meldrum's Acid]	98 °C
CC(C)[C@@H]1CC[C@@H](C)C[C@H]1O [Menthol]	43 °C
C [Methane]	-182 °C
